pIC50, pKi: −log10 of the molar value. Residues, ends and D or L forms follow the SMILES beside them. *: point of attachment. X13 = O=C(O)[C@@H](CC(=O)*)SCc1cccc([N+](=O)[O-])c1; X15 = CC(C)(C)c1ccc(CS[C@H](CC(=O)*)C(=O)O)cc1; X16 = O=C(O)[C@H](CC(=O)*)SCc1ccc(Cl)c(Cl)c1; X17 = O=C(O)[C@@H](CC(=O)*)Sc1cc(Cl)cc(Cl)c1; X11 = O=C(O)[C@H](CC(=O)*)SCc1cccc2ccccc12; X18 = O=C(O)[C@@H](CC(=O)*)Sc1c(Cl)cccc1Cl; X3 = O=C(O)[C@H](CC(=O)*)Sc1ccc(Cl)c(Cl)c1; X10 = Cc1noc(C)c1CCS[C@H](CC(=O)*)C(=O)O; X14 = O=C(O)[C@H](CC(=O)*)SCc1ccc(Cl)cc1; X22 = COc1ccc(CS[C@H](CC(=O)*)C(=O)O)cc1; X6 = Cc1noc(C)c1CCS[C@@H](CC(=O)*)C(=O)O; X19 = O=C(O)[C@H](CC(=O)*)Sc1ccc(Cl)cc1; X21 = O=C(O)[C@@H](CC(=O)*)SC1CCCCC1; X8 = O=C(O)[C@H](CC(=O)*)Sc1ccccc1; X12 = O=C(O)C(CC(=O)*)SCCc1cnccn1; X5 = O=C(O)C(CC(=O)*)SCCc1ccccn1; X7 = O=C(O)C(CC(=O)*)SCCc1ccncc1; X4 = O=C(O)C(CC(=O)*)Cc1ccccc1; Bz = O=C(c1ccccc1)*
Target: NAD-dependent protein deacylase sirtuin-5, mitochondrial (Homo sapiens, UniProt Q9NXA8)
Sequence (Q9NXA8 whole entry): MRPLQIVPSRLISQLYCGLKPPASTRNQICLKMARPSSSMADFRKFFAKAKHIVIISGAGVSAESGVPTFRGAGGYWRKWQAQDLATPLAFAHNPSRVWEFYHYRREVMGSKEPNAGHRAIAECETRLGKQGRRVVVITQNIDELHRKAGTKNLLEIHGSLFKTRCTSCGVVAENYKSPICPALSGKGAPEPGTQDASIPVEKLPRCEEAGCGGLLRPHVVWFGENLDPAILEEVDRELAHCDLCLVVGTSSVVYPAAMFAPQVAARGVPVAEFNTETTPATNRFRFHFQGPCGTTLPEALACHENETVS
Assay: Inhibition of human recombinant N-terminal Strep2-tagged SIRT5 expressed in Escherichia coli BL21 (DE3) using Abz-GVLK(glutaryl)AY(NO2)GV-NH2 as substrate in presence of NAD+ by fluorescence assay

**Q.** `C=CCN1C(=O)/C(=C/c2ccc(-c3cccc(Cl)c3Cl)o2)C(=O)NC1=S` was tested. Which pIC50 did it give?
**A.** 4.60

**Q.** With `O=C(C[C@H](Sc1ccc2ccccc2c1)C(=O)O)NCCCc1ccccc1` as the molecule, how does the pIC50 read?
**A.** 4.14

**Q.** `O=C(C[C@H](Sc1ccc2ccccc2c1)C(=O)O)Nc1ccccc1` was tested. Which pIC50 did it give?
**A.** 3.80

**Q.** `CC(=O)N[C@@H](CC(C)C)C(=O)N[C@@H](CCCCNC(=O)C[C@H](Sc1ccc2ccccc2c1)C(=O)O)C(=O)N[C@@H](C)C(N)=O` was tested. Which pIC50 did it give?
**A.** 6.46

**Q.** With `CC(=O)N[C@@H](CCCCNC(=O)C[C@H](Sc1ccc2ccccc2c1)C(=O)O)C(N)=O` as the molecule, how does the pIC50 read?
**A.** 5.13

**Q.** `CNC(=O)c1cccc(NC(=O)C[C@H](Sc2ccc3ccccc3c2)C(=O)O)c1` was tested. Which pIC50 did it give?
**A.** 4.05

**Q.** How did the pIC50 turn out when `CC(=O)N[C@@H](CC(C)C)C(=O)N[C@@H](CCCCNC(=O)CC(Sc1ccc2ccccc2c1)C(=O)O)C(=O)N[C@@H](C)C(N)=O` (some centres not stated) was run?
**A.** 5.97

**Q.** With `O=C(C[C@H](Sc1ccc2ccccc2c1)C(=O)O)NCc1ccccc1` as the molecule, how does the pIC50 read?
**A.** 3.91

**Q.** `CCCCNC(=O)C[C@H](Sc1ccc2ccccc2c1)C(=O)O` was tested. Which pIC50 did it give?
**A.** 3.81

**Q.** With `CC(C)C[C@H](NC(=O)[C@@H](NC(=O)CNC(=O)c1ccccc1)C(C)C)C(=O)N[C@@H](CCCCNC(=O)C[C@H](Sc1ccc(Cl)c(Cl)c1)C(=O)O)C(=O)N[C@@H](CCC(=O)O)C(=O)N[C@@H](Cc1ccc(O)cc1)C(=O)NCC(=O)N[C@H](C(N)=O)C(C)C` (Bz-GVLK(X3)EYGV-NH2) as the molecule, how does the pIC50 read?
**A.** 7.34

**Q.** What about the pKi of the same molecule?
**A.** 7.64

**Q.** Which results are given for `CC(C)C[C@H](NC(=O)[C@@H](NC(=O)CNC(=O)c1ccccc1)C(C)C)C(=O)N[C@@H](CCCCNC(=O)CC(Cc1ccccc1)C(=O)O)C(=O)N[C@@H](CCC(=O)O)C(=O)N[C@@H](Cc1ccc(O)cc1)C(=O)NCC(=O)N[C@H](C(N)=O)C(C)C` (some centres not stated) (Bz-GVLK(X4)EYGV-NH2)?
**A.** pIC50: 5.95; pKi: 6.58

**Q.** How did the pIC50 turn out when `CC(C)C[C@H](NC(=O)[C@@H](NC(=O)CNC(=O)c1ccccc1)C(C)C)C(=O)N[C@@H](CCCCNC(=O)CC(SCCc1ccccn1)C(=O)O)C(=O)N[C@@H](CCC(=O)O)C(=O)N[C@@H](Cc1ccc(O)cc1)C(=O)NCC(=O)N[C@H](C(N)=O)C(C)C` (some centres not stated) (Bz-GVLK(X5)EYGV-NH2) was run?
**A.** 5.16

**Q.** `Cc1noc(C)c1CCS[C@@H](CC(=O)NCCCC[C@H](NC(=O)[C@H](CC(C)C)NC(=O)[C@@H](NC(=O)CNC(=O)c1ccccc1)C(C)C)C(=O)N[C@@H](CCC(=O)O)C(=O)N[C@@H](Cc1ccc(O)cc1)C(=O)NCC(=O)N[C@H](C(N)=O)C(C)C)C(=O)O` (Bz-GVLK(X6)EYGV-NH2) was tested. Which pIC50 did it give?
**A.** 5.06

**Q.** `CC(C)C[C@H](NC(=O)[C@@H](NC(=O)CNC(=O)c1ccccc1)C(C)C)C(=O)N[C@@H](CCCCNC(=O)CC(SCCc1ccncc1)C(=O)O)C(=O)N[C@@H](CCC(=O)O)C(=O)N[C@@H](Cc1ccc(O)cc1)C(=O)NCC(=O)N[C@H](C(N)=O)C(C)C` (some centres not stated) (Bz-GVLK(X7)EYGV-NH2) was tested. Which pIC50 did it give?
**A.** 4.88

**Q.** How did the pIC50 turn out when `CC(C)C[C@H](NC(=O)[C@@H](NC(=O)CNC(=O)c1ccccc1)C(C)C)C(=O)N[C@@H](CCCCNC(=O)C[C@H](Sc1ccccc1)C(=O)O)C(=O)N[C@@H](CCC(=O)O)C(=O)N[C@@H](Cc1ccc(O)cc1)C(=O)NCC(=O)N[C@H](C(N)=O)C(C)C` (Bz-GVLK(X8)EYGV-NH2) was run?
**A.** 6.56

**Q.** What about the pKi of the same molecule?
**A.** 6.87

**Q.** With `Cc1noc(C)c1CCS[C@H](CC(=O)NCCCC[C@H](NC(=O)[C@H](CC(C)C)NC(=O)[C@@H](NC(=O)CNC(=O)c1ccccc1)C(C)C)C(=O)N[C@@H](CCC(=O)O)C(=O)N[C@@H](Cc1ccc(O)cc1)C(=O)NCC(=O)N[C@H](C(N)=O)C(C)C)C(=O)O` (Bz-GVLK(X10)EYGV-NH2) as the molecule, how does the pIC50 read?
**A.** 4.73

**Q.** `CC(C)C[C@H](NC(=O)[C@@H](NC(=O)CNC(=O)c1ccccc1)C(C)C)C(=O)N[C@@H](CCCCNC(=O)C[C@H](SCc1cccc2ccccc12)C(=O)O)C(=O)N[C@@H](CCC(=O)O)C(=O)N[C@@H](Cc1ccc(O)cc1)C(=O)NCC(=O)N[C@H](C(N)=O)C(C)C` (Bz-GVLK(X11)EYGV-NH2) was tested. Which pIC50 did it give?
**A.** 7.81

**Q.** What about the pKi of the same molecule?
**A.** 8.15

**Q.** `CC(C)C[C@H](NC(=O)[C@@H](NC(=O)CNC(=O)c1ccccc1)C(C)C)C(=O)N[C@@H](CCCCNC(=O)CC(SCCc1cnccn1)C(=O)O)C(=O)N[C@@H](CCC(=O)O)C(=O)N[C@@H](Cc1ccc(O)cc1)C(=O)NCC(=O)N[C@H](C(N)=O)C(C)C` (some centres not stated) (Bz-GVLK(X12)EYGV-NH2) was tested. Which pIC50 did it give?
**A.** 4.64

**Q.** What about the pKi of the same molecule?
**A.** 7.96 to 8.46

**Q.** `CC(C)C[C@H](NC(=O)[C@@H](NC(=O)CNC(=O)c1ccccc1)C(C)C)C(=O)N[C@@H](CCCCNC(=O)C[C@@H](SCc1cccc([N+](=O)[O-])c1)C(=O)O)C(=O)N[C@@H](CCC(=O)O)C(=O)N[C@@H](Cc1ccc(O)cc1)C(=O)NCC(=O)N[C@H](C(N)=O)C(C)C` (Bz-GVLK(X13)EYGV-NH2) was tested. Which pIC50 did it give?
**A.** 5.57

**Q.** With `CC(C)C[C@H](NC(=O)[C@@H](NC(=O)CNC(=O)c1ccccc1)C(C)C)C(=O)N[C@@H](CCCCNC(=O)C[C@H](SCc1ccc(Cl)cc1)C(=O)O)C(=O)N[C@@H](CCC(=O)O)C(=O)N[C@@H](Cc1ccc(O)cc1)C(=O)NCC(=O)N[C@H](C(N)=O)C(C)C` (Bz-GVLK(X14)EYGV-NH2) as the molecule, how does the pIC50 read?
**A.** 6.05

**Q.** `CC(C)C[C@H](NC(=O)[C@@H](NC(=O)CNC(=O)c1ccccc1)C(C)C)C(=O)N[C@@H](CCCCNC(=O)C[C@@H](SCc1ccc(C(C)(C)C)cc1)C(=O)O)C(=O)N[C@@H](CCC(=O)O)C(=O)N[C@@H](Cc1ccc(O)cc1)C(=O)NCC(=O)N[C@H](C(N)=O)C(C)C` (Bz-GVLK(X15)EYGV-NH2) was tested. Which pIC50 did it give?
**A.** 5.91

**Q.** `CC(C)C[C@H](NC(=O)[C@@H](NC(=O)CNC(=O)c1ccccc1)C(C)C)C(=O)N[C@@H](CCCCNC(=O)C[C@H](SCc1ccc(Cl)c(Cl)c1)C(=O)O)C(=O)N[C@@H](CCC(=O)O)C(=O)N[C@@H](Cc1ccc(O)cc1)C(=O)NCC(=O)N[C@H](C(N)=O)C(C)C` (Bz-GVLK(X16)EYGV-NH2) was tested. Which pIC50 did it give?
**A.** 6.13

**Q.** How did the pIC50 turn out when `CC(C)C[C@H](NC(=O)[C@@H](NC(=O)CNC(=O)c1ccccc1)C(C)C)C(=O)N[C@@H](CCCCNC(=O)C[C@@H](Sc1cc(Cl)cc(Cl)c1)C(=O)O)C(=O)N[C@@H](CCC(=O)O)C(=O)N[C@@H](Cc1ccc(O)cc1)C(=O)NCC(=O)N[C@H](C(N)=O)C(C)C` (Bz-GVLK(X17)EYGV-NH2) was run?
**A.** 6.19

**Q.** `CC(C)C[C@H](NC(=O)[C@@H](NC(=O)CNC(=O)c1ccccc1)C(C)C)C(=O)N[C@@H](CCCCNC(=O)C[C@@H](Sc1c(Cl)cccc1Cl)C(=O)O)C(=O)N[C@@H](CCC(=O)O)C(=O)N[C@@H](Cc1ccc(O)cc1)C(=O)NCC(=O)N[C@H](C(N)=O)C(C)C` (Bz-GVLK(X18)EYGV-NH2) was tested. Which pIC50 did it give?
**A.** 4.90

**Q.** `CC(C)C[C@H](NC(=O)[C@@H](NC(=O)CNC(=O)c1ccccc1)C(C)C)C(=O)N[C@@H](CCCCNC(=O)C[C@H](Sc1ccc(Cl)cc1)C(=O)O)C(=O)N[C@@H](CCC(=O)O)C(=O)N[C@@H](Cc1ccc(O)cc1)C(=O)NCC(=O)N[C@H](C(N)=O)C(C)C` (Bz-GVLK(X19)EYGV-NH2) was tested. Which pIC50 did it give?
**A.** 6.99

**Q.** How did the pIC50 turn out when `CC(C)C[C@H](NC(=O)[C@@H](NC(=O)CNC(=O)c1ccccc1)C(C)C)C(=O)N[C@@H](CCCCNC(=O)C[C@@H](SC1CCCCC1)C(=O)O)C(=O)N[C@@H](CCC(=O)O)C(=O)N[C@@H](Cc1ccc(O)cc1)C(=O)NCC(=O)N[C@H](C(N)=O)C(C)C` (Bz-GVLK(X21)EYGV-NH2) was run?
**A.** < 4.85

**Q.** `COc1ccc(CS[C@H](CC(=O)NCCCC[C@H](NC(=O)[C@H](CC(C)C)NC(=O)[C@@H](NC(=O)CNC(=O)c2ccccc2)C(C)C)C(=O)N[C@@H](CCC(=O)O)C(=O)N[C@@H](Cc2ccc(O)cc2)C(=O)NCC(=O)N[C@H](C(N)=O)C(C)C)C(=O)O)cc1` (Bz-GVLK(X22)EYGV-NH2) was tested. Which pIC50 did it give?
**A.** 5.95
